Legend:
Assay type in all cases: biochemical
cathepsin B = biological target: T1, cathepsin B (Homo sapiens, UniProt P07858); assay: Inhibition of cathepsin B (Cbz-Phe-Arg-AMC hydrolysis); conditions: Table 6; pH 6.0; read-out: Cath. B IC50
T1 construct: purchased Calbiochem 219364
Protocol: (§1) To evaluate inhibitory activity, stock solutions (40 times concentrated) of each compound to be tested were prepared in 100% anhydrous DMSO and 5 μl of each inhibitor preparation was aliquoted into each of three wells of a 96-well plate. Recombinant human calpain I, prepared by the method of Meyer et al. (Biochem. J. 1996, 314: 511-519), was diluted into assay buffer (i.e., 50 mM Tris, 50 mM NaCl, 1 mM EDTA, 1 mM EGTA, and 5 mM β-mercaptoethanol, pH 7.5, including 0.2 mM Succ-Leu-Tyr-MNA), and 175 μl was aliquoted into the same wells containing the independent inhibitor stocks as well as to positive control wells containing 5 μl DMSO, but no compound. To start the reaction, 20 μl of 50 mM CaCl2 in assay buffer was added to all wells of the plate, excepting three, which were used as background signal baseline controls. Substrate hydrolysis was monitored every 5 minutes for a total of 30 minutes. Substrate hydrolysis in the absence of inhibitor was linear for up to 15 minutes.
(§2) Inhibition of calpain I activity was calculated as the percent decrease in the rate of substrate hydrolysis in the presence of inhibitor relative to the rate in its absence. Comparison between the inhibited and control rates was made within the linear range for substrate hydrolysis. The IC50 S of inhibitors (concentration yielding 50% inhibition) were determined from the percent decrease in rates of substrate hydrolysis in the presence of five to seven different concentrations of the test compound. The results were plotted as percent inhibition versus log inhibitor concentration, and the IC50 was calculated by fitting the data to the four-parameter logistic equation shown below using the program GraphPad Prism (GraphPad Software, Inc., San Diego, Calif.).
Additionally, the order of reagents added to the plate was altered because the enzyme is consitutively active. Following inhibitor addition to the plates, appropriate 2× concentrated stock dilutions of the enzyme preparations were made in assay buffer and 100 μl added to each well. The assay was initiated by addition of 100 μl of 2× concentrated stock dilution of substrate in assay buffer. Substrate hydrolysis was monitored using a Fluoriskan II (ex=390 nm; em=460 nm).

[1] = biological target: T2, Recombinant human calpain I (Homo sapiens, UniProt P07384); assay: Inhibition of calpain I (Succ-Leu-Tyr-MNA hydrolysis); conditions: Tables 2-4; pH 7.5
T2 construct: made in house
T2 sequence (P07384 1-714): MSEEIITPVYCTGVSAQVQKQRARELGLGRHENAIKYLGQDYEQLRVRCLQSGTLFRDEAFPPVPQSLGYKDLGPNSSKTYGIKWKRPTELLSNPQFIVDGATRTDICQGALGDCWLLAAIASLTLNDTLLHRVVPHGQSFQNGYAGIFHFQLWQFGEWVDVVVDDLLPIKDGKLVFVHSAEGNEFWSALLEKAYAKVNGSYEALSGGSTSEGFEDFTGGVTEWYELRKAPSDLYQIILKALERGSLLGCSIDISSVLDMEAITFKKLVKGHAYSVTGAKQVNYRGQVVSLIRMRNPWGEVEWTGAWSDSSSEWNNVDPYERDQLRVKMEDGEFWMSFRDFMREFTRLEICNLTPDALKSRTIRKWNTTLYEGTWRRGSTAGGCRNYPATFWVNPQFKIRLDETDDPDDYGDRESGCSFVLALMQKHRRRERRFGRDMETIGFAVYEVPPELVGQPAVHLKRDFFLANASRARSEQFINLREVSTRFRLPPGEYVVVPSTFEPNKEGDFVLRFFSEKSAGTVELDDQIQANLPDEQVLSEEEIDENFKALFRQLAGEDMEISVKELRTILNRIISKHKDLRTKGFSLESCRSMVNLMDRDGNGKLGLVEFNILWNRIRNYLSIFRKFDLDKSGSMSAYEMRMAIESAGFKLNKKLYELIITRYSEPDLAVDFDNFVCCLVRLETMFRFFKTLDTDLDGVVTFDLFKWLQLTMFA
Protocol: as §1, §2
The parameters a, b, c, and d are defined as follows: a is % inhibition in the absence of inhibitor, b is the slope, c is the IC50, and d is the % inhibition at an infinite concentration of inhibitor.

α-chymotrypsin = biological target: T3, α-chymotrypsin (Bos taurus, UniProt P00766); assay: Inhibition of serine protease α-chymotrypsin (Succ-Ala-Ala-Pro-Phe-AMC hydrolysis); conditions: Table 6; pH 7.5
T3 construct: purchased Sigma Chem. Co. C-3142
Protocol: as §1, §2
Additionally, because α-chymotrypsin is not a calcium sensitive enzyme and is constitutively active, following addition of inhibitor stocks to the 96 well plates, 100 μl of a 2-fold concentrated stock of enzyme in dilution buffer was first added and the reaction was started by addition of 100 μl of a 2-fold concentrated stock of substrate in assay buffer. Substrate hydrolysis was monitored every 5 minutes up to 30 minutes using a Fluoroskan II (ex=390 nm em=460 nm).

| SMILES | IC50 (cathepsin B) | IC50 [1] | IC50 (α-chymotrypsin) |
| --- | --- | --- | --- |
| O=C(NCCNS(=O)(=O)c1ccc(-c2ccccn2)s1)C(=O)C(Cc1ccccc1)NC(=O)c1cc(C#Cc2ccccc2)nc2ccccc12 (centres unmarked) [Example 86] | 1.03 µM |  | 0.475 µM |
| CCONC(=O)C(=O)C(Cc1ccccc1)NC(=O)c1cc(C#Cc2ccccc2)nc2ccccc12 (centres unmarked) [Example 103] | 0.435 µM | 0.065 µM | 0.38 µM |
| O=C(NCCNS(=O)(=O)c1ccccc1)C(=O)[C@H](Cc1ccccc1)NC(=O)c1cc(C#Cc2ccccc2)nc2ccccc12 [Example 96] | 0.375 µM | 0.029 µM | 0.066 µM |

The next compounds have a lower IC50 (cathepsin B) than those just listed; values first:

| IC50 (cathepsin B) | IC50 [1] | IC50 (α-chymotrypsin) | SMILES |
| --- | --- | --- | --- |
| 0.36 µM | 0.055 µM | 0.036 µM | O=C(NCCCNS(=O)(=O)c1ccccc1)C(=O)C(Cc1ccccc1)NC(=O)c1cc(C#Cc2ccccc2)nc2ccccc12 (centres unmarked) [Example 100] |
| 0.33 µM | 0.06 µM | 1.16 µM | O=C(NOCc1ccccc1)C(=O)C(Cc1ccccc1)NC(=O)c1cc(C#Cc2ccccc2)nc2ccccc12 (centres unmarked) [Example 104] |

Source: patent US6083944A, “Quinoline-containing α-ketoamide cysteine and serine protease inhibitors” (Cephalon, Inc., priority 1998, dated 2000)
